This data set can be described thus: saturation solubility in various solvent systems. The format is physicochemical. On the procedure:
Solubility is the property of a solid, liquid, or gaseous chemical substance called solute to dissolve in a liquid solvent to form a homogeneous solution of the solute in the solvent. […] The saturation solubility of the compounds according to the present invention is measured in various solvent systems including simulated gastric fluid, pH 4.5 buffer, pH 6.8 buffer solution and pH 7.2 buffer solution. The compounds according to the present invention show better solubility as compared to abacavir sulphate in all solvent systems. Table- 1: Comparison of saturation solubility of Abacavir malonate with Abacavir sulphate (marketed salt)

Setting [1] is: solvent: pH 4.5 Sodium acetate buffer.
[2] abbreviates: solvent: pH 6.8 Phosphate buffer.
Where [3] appears, read: solvent: pH 7.2 Phosphate buffer.

Converted amounts (≈) assume the structure as drawn. Where two headings read alike, the source gives them in different places.

What is called Solubility is the concentration that dissolves in the medium under given conditions.

For the compound `Nc1nc(NC2CC2)c2ncn([C@H]3C=C[C@@H](CO)C3)c2n1` [Abacavir Sulphate, reference compound], the Solubility by setting is: (0.1 N HCl, simulated gastric fluid, thermodynamic from solid, solvent: O.1N HC1, read-out: Solubility) 93.1 mg/mL; under setting [1], 112.6 mg/mL; under setting [2], 89.5 mg/mL; under setting [3], 124.0 mg/mL; (water, thermodynamic from solid, solvent: Water, read-out: Solubility) 89.2 mg/mL.
In the case of `Nc1nc(NC2CC2)c2ncn([C@H]3C=C[C@@H](CO)C3)c2n1` [Abacavir Malonate, (1S,4R)-4-[2-AMINO-(6-CYCLOPROPYLAMINO)-9H-PURIN-9-YL]-2-CYCLOPENTENE-1-METHANOL MALONATE], the Solubility is 733 mg/mL (≈ 2560 mM) (0.01n hcl, solvent: O.O1N HC1, read-out: Solubility); 368 mg/mL (≈ 1290 mM) (0.1n hcl, simulated gastric fluid, thermodynamic from solid, solvent: O.1N HC1, read-out: Solubility); 116.2 mg/mL (≈ 406 mM) (solvent: Water); 403.6 mg/mL (≈ 1410 mM) under setting [1]; 425.2 mg/mL (≈ 1480 mM) under setting [2]; 453.5 mg/mL (≈ 1580 mM) under setting [3].

Source of the values: EP2305680A2, “Novel salts of (1S,4R)-cis-4-[2-amino-6-(cyclopropylamino)-9H-purin-9-yl]-2-cyclopentene-1-methanol” (AUROBINDO PHARMA LIMITED, priority 2009, dated 2011).
